Reference: ChEMBL document CHEMBL5705890, “Antitumor activity of an allosteric inhibitor of centromere-associated protein-E” (Proc Natl Acad Sci U S A, 2010)

Assays:
Format in all cases: functional
LS-1034 = test: Anticancer activity against human LS1034 cells assessed as cell growth inhibition measured after 72 hrs by DAPI staining based analysis
SK-N-DZ = test: Anticancer activity against human SK-N-DZ cells assessed as cell growth inhibition measured after 72 hrs by DAPI staining based analysis
HT-1376 = test: Anticancer activity against human HT-1376 cells assessed as cell doubling measured for 72 hrs by DAPI staining based analysis
SHP77 = test: Anticancer activity against human SHP77 cells assessed as cell doubling measured for 72 hrs by DAPI staining based analysis
SNU-5 = test: Anticancer activity against human SNU-5 cells assessed as cell doubling measured for 72 hrs by DAPI staining based analysis

GI50 (SK-N-DZ): 69 nM
SMILES: CC(C)Oc1ccc(C(=O)N[C@H](CNC(=O)CN(C)C)Cc2ccc(-c3cn4cccc([C@H](C)O)c4n3)cc2)cc1Cl [GSK-923295A]
GI50 (LS-1034): 97 nM
Activity (HT-1376): 1.74
Activity (SHP77): 2.04
Activity (SNU-5): 1.47
